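Where inhibition never reached the appropriate level, the endpoint shown equals the highest concentration tested. Otherwise, values were interpolated linearly from a five-concentration, 48-hour dose response in 96-well plates. GI50: concentration for 50% inhibition of growth. TGI: concentration producing complete growth inhibition.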
Key:
Assay in all cases: NCI anticancer screen, dose series, 48 h
T-47D breast = system: T-47D breast
SK-MEL-2 melanoma = system: SK-MEL-2 melanoma
UACC-257 melanoma = system: UACC-257 melanoma
SNB-75 CNS = system: SNB-75 CNS
OVCAR-3 ovarian = system: OVCAR-3 ovarian
COLO 205 colon = system: COLO 205 colon
ACHN renal = system: ACHN renal
U251 CNS = system: U251 CNS
HCC-2998 colon = system: HCC-2998 colon
LOX IMVI melanoma = system: LOX IMVI melanoma
HOP-62 NSCLC = system: HOP-62 NSCLC
K-562 leukemia = system: K-562 leukemia
SK-OV-3 ovarian = system: SK-OV-3 ovarian
KM12 colon = system: KM12 colon
NCI-H23 lung = system: NCI-H23 lung
OVCAR-8 ovarian = system: OVCAR-8 ovarian
HCT-116 colon = system: HCT-116 colon
RXF 393 renal = system: RXF 393 renal
CCRF-CEM leukemia = system: CCRF-CEM leukemia
BT-549 breast = system: BT-549 breast
EKVX NSCLC = system: EKVX NSCLC
SNB-19 CNS = system: SNB-19 CNS
HCT-15 colon = system: HCT-15 colon
SK-MEL-5 melanoma = system: SK-MEL-5 melanoma
NCI-H226 lung = system: NCI-H226 lung
MCF7 breast = system: MCF7 breast
SR leukemia = system: SR leukemia
HOP-92 NSCLC = system: HOP-92 NSCLC
NCI-H522 lung = system: NCI-H522 lung
NCI/ADR-RES ovarian = system: NCI/ADR-RES ovarian
NCI-H460 lung = system: NCI-H460 lung
TK-10 renal = system: TK-10 renal
MDA-MB-435 = system: MDA-MB-435
IGROV1 ovarian = system: IGROV1 ovarian
DU-145 prostate = system: DU-145 prostate
OVCAR-4 ovarian = system: OVCAR-4 ovarian
A498 renal = system: A498 renal
SK-MEL-28 melanoma = system: SK-MEL-28 melanoma
MALME-3M melanoma = system: MALME-3M melanoma
PC-3 prostate = system: PC-3 prostate
MDA-MB-231 breast = system: MDA-MB-231 breast
SN12C renal = system: SN12C renal
OVCAR-5 ovarian = system: OVCAR-5 ovarian
CAKI-1 renal = system: CAKI-1 renal
SF-268 CNS = system: SF-268 CNS
HT29 colon = system: HT29 colon
MOLT-4 leukemia = system: MOLT-4 leukemia
SF-539 CNS = system: SF-539 CNS
HS 578T breast = system: HS 578T breast
SF-295 CNS = system: SF-295 CNS
HL-60(TB) leukemia = system: HL-60(TB) leukemia
UO-31 renal = system: UO-31 renal
RPMI-8226 leukemia = system: RPMI-8226 leukemia
A549 NSCLC = system: A549 NSCLC
M14 melanoma = system: M14 melanoma
786-0 renal = system: 786-0 renal
SW-620 colon = system: SW-620 colon

CC(=O)N1CCN([C@H]2CCC[C@@H](NC(=O)c3cc4c(F)ccc(C)c4[nH]3)C2)CC1
GI50 (T-47D breast): 25.2 µM | TGI (T-47D breast): > 100 µM | GI50 (SK-MEL-2 melanoma): 34.9 µM | TGI (SK-MEL-2 melanoma): > 100 µM | GI50 (UACC-257 melanoma): 13.6 µM | TGI (UACC-257 melanoma): 27.8 µM | GI50 (SNB-75 CNS): 5.43 µM | TGI (SNB-75 CNS): 68.1 µM | GI50 (OVCAR-3 ovarian): 42.9 µM | TGI (OVCAR-3 ovarian): > 100 µM | GI50 (COLO 205 colon): 24.5 µM | TGI (COLO 205 colon): > 100 µM | GI50 (ACHN renal): 32.5 µM | TGI (ACHN renal): > 100 µM | GI50 (U251 CNS): 32.1 µM | TGI (U251 CNS): > 100 µM | GI50 (HCC-2998 colon): 18.7 µM | TGI (HCC-2998 colon): > 100 µM | GI50 (LOX IMVI melanoma): 16.4 µM | TGI (LOX IMVI melanoma): > 100 µM | GI50 (HOP-62 NSCLC): 15.3 µM | TGI (HOP-62 NSCLC): > 100 µM | GI50 (K-562 leukemia): 31.1 µM | TGI (K-562 leukemia): > 100 µM | GI50 (SK-OV-3 ovarian): 37.2 µM | TGI (SK-OV-3 ovarian): > 100 µM | GI50 (KM12 colon): 44.3 µM | TGI (KM12 colon): > 100 µM | GI50 (NCI-H23 lung): 20.3 µM | TGI (NCI-H23 lung): > 100 µM | GI50 (OVCAR-8 ovarian): 46.5 µM | TGI (OVCAR-8 ovarian): > 100 µM | GI50 (HCT-116 colon): 27.5 µM | TGI (HCT-116 colon): > 100 µM | GI50 (RXF 393 renal): 2.17 µM | TGI (RXF 393 renal): 9.61 µM | GI50 (CCRF-CEM leukemia): 21.6 µM | TGI (CCRF-CEM leukemia): > 100 µM | GI50 (BT-549 breast): 15.6 µM | TGI (BT-549 breast): > 100 µM | GI50 (EKVX NSCLC): 10.7 µM | TGI (EKVX NSCLC): > 100 µM | GI50 (SNB-19 CNS): 33.3 µM | TGI (SNB-19 CNS): > 100 µM | GI50 (HCT-15 colon): 19.9 µM | TGI (HCT-15 colon): > 100 µM | GI50 (SK-MEL-5 melanoma): 15.1 µM | TGI (SK-MEL-5 melanoma): 28.5 µM | GI50 (NCI-H226 lung): 16.9 µM | TGI (NCI-H226 lung): > 100 µM | GI50 (MCF7 breast): 13.5 µM | TGI (MCF7 breast): > 100 µM | GI50 (SR leukemia): 14 µM | TGI (SR leukemia): 81 µM | GI50 (HOP-92 NSCLC): 18.4 µM | TGI (HOP-92 NSCLC): > 100 µM | GI50 (NCI-H522 lung): 10.8 µM | TGI (NCI-H522 lung): > 100 µM | GI50 (NCI/ADR-RES ovarian): 69.9 µM | TGI (NCI/ADR-RES ovarian): > 100 µM | GI50 (NCI-H460 lung): 18.3 µM | TGI (NCI-H460 lung): > 100 µM | GI50 (TK-10 renal): 18.7 µM | TGI (TK-10 renal): > 100 µM | GI50 (MDA-MB-435): 24.6 µM | TGI (MDA-MB-435): > 100 µM | GI50 (IGROV1 ovarian): 4.83 µM | TGI (IGROV1 ovarian): > 100 µM | GI50 (DU-145 prostate): 24.6 µM | TGI (DU-145 prostate): > 100 µM | GI50 (OVCAR-4 ovarian): 11.3 µM | TGI (OVCAR-4 ovarian): > 100 µM | GI50 (A498 renal): 14 µM | TGI (A498 renal): > 100 µM | GI50 (SK-MEL-28 melanoma): 13.5 µM | TGI (SK-MEL-28 melanoma): 29 µM | GI50 (MALME-3M melanoma): 10.1 µM | TGI (MALME-3M melanoma): 29.8 µM | GI50 (PC-3 prostate): 26.1 µM | TGI (PC-3 prostate): > 100 µM | GI50 (MDA-MB-231 breast): 22.3 µM | TGI (MDA-MB-231 breast): > 100 µM | GI50 (SN12C renal): 21.9 µM | TGI (SN12C renal): > 100 µM | GI50 (OVCAR-5 ovarian): 39.9 µM | TGI (OVCAR-5 ovarian): > 100 µM | GI50 (CAKI-1 renal): 11.2 µM | TGI (CAKI-1 renal): > 100 µM | GI50 (SF-268 CNS): 23 µM | TGI (SF-268 CNS): > 100 µM | GI50 (HT29 colon): 16.7 µM | TGI (HT29 colon): 71.6 µM | GI50 (MOLT-4 leukemia): 19.4 µM | TGI (MOLT-4 leukemia): > 100 µM | GI50 (SF-539 CNS): 13.8 µM | TGI (SF-539 CNS): > 100 µM | GI50 (HS 578T breast): 4.66 µM | TGI (HS 578T breast): 47.6 µM | GI50 (SF-295 CNS): 10.8 µM | TGI (SF-295 CNS): > 100 µM | GI50 (HL-60(TB) leukemia): 62.5 µM | TGI (HL-60(TB) leukemia): > 100 µM | GI50 (UO-31 renal): 1.78 µM | TGI (UO-31 renal): 3.91 µM | GI50 (RPMI-8226 leukemia): 24.9 µM | TGI (RPMI-8226 leukemia): > 100 µM | GI50 (A549 NSCLC): 10.8 µM | TGI (A549 NSCLC): > 100 µM | GI50 (M14 melanoma): 15.3 µM | TGI (M14 melanoma): 34.3 µM | GI50 (786-0 renal): 36.6 µM | TGI (786-0 renal): > 100 µM | GI50 (SW-620 colon): 85.1 µM | TGI (SW-620 colon): > 100 µM

— PubChem BioAssay (NCI)
